System: HSV-1 gE/gI
Assay: Total anti-HSV-1 gE/gI cross-reactive IgG antibodies by ELISA in serum of immunised mice
Format: in vivo, CB6F1 mice
Settings: 0.1 ug LNP/SAM i.m. days 0 & 28, adjuvanted with 2.22 ug of STING agonist at day+0, +1 or +3; 21PII (day 49); FIG. 3
Procedure: Female CB6F1 inbred mice aged 6-8 weeks old were randomly assigned to study groups (n=8 gr1-10 (groups 1-10) and n=4/gr11 (group 11)) and kept under pathogen-free conditions. Mice ([…]) were intramuscularly (i.m.) immunized, in the gastrocnemius muscle, on days 0 and 28 with 0.1ug of LNP-formulated SAM (25 uL volume) comprising a heterodimer of the HSV-2 gE and gI proteins (LNP/SAM-gE_P317R/gI) and were injected, in the same muscle, with different doses of STING agonist (0.25, 0.74 or 2.22ug) either at the same time (day+0) or 1 or 3 days after each of the two SAM immunizations. […]
Quantification of the total HSV-1 gE/gI-specific IgG antibodies was performed using indirect ELISA. […]
The plates were then washed four times with washing buffer and 2 times with deionised water and incubated for 15 min at RT (room temperature) with 100 uL/well of a solution of 75% single-component TMB peroxidase ELISA substrate diluted in sodium citrate 0.1M pH5.5 buffer. Enzymatic color development was stopped with 100 uL of […] sulfuric acid 1M (H2SO4) per well and the plates were read at an absorbance of 450/620 nm using an ELISA reader. Optical densities (OD) were captured and analysed. […] Antibody titer in the samples was calculated by interpolation of the standard curve. […]

CCn1nc(C)cc1C(=O)/N=c1\[nH]c2cc(C(N)=O)cc(OC)c2n1C/C=C/Cn1/c(=N/C(=O)c2cc(C)nn2CC)[nH]c2cc(C(N)=O)cc(OCCCOP(=O)(O)O)c21 [STING, 3-(((E)-6-carbamoyl-3-((E)-4-((E)-5-carbamoyl-2-((1-ethyl-3-methyl-1H-pyrazole-5-carbonyl)imino)-7-methoxy-2,3-dihydro-1H-benzo[d]imidazol-1-yl)but-2-en-1-yl)-2-((1-ethyl-3-methyl-1H-pyrazole-5-carbonyl)imino)-2,3-dihydro-1H-benzo[d]imidazol-4-yl)oxy)propyl]
GM titers of anti-HSV-1 gE/gI cross reactive IgG antibody relative to unadjuvanted control: increased GM titers of anti-HSV-1 gE/gI cross reactive IgG antibody in all groups
